Source: patent US20260022341A1, “METHOD OF GENERATING A HOMOCELLULAR PROGENITOR CELL CULTURE FROM A HETEROCELLULAR TISSUE SAMPLE” (MOSA MEAT B.V., priority 2022, published 2026)
“Also recorded” adds a separate entry of the source.

How the values were obtained:
Assay type in all cases: cell-based, bovine
SCs and FAPs [1] = assay: Long-term proliferation assay of SC/FAP mixtures on different coatings (FIG. 3); conditions: compound applied as culture vessel coating, measured after every passage by ITGA7/ITGA5 flow cytometry
Procedure: (§1) Cells were isolated, purified and cultured as described in Example 1. For long-term proliferation assays, mixtures of SCs and FAPs were cultured on different coatings (FIG. 3) or on Laminin 521 with different media (FIGS. 4A-4C). After every passage, the ratio of SCs to FAPs was measured as the ratio of ITGA7+/ITGA5−cells (SCs) to ITGA7−/ITGA5+cells (FAPs) via flow cytometry, as described in Example 1.
Using long-term proliferation assays, combined with flow cytometry for ITGA7/ITGA5, we tested different compounds including extracellular matrix proteins tissue culture vessel coatings, and measured percentage of SCs over time in a cell culture that contains SCs and FAPs.

SCs and FAPs [2] = assay: Compound screening: ratio of SCs in a cell culture of SCs and FAPs after one passage (flow cytometry); conditions: SFM1 base medium, HGF 10×=50 ng/ml, IC 50 μM, HC 138 nM, T3 30 nM, DAPT 5 or 10 μM, FGF2 10×=100 ng/ml, SB203580 10 μM, IL6 20 ng/ml, PDGF-bb 10×=50 ng/ml
Procedure: Excess visible fat and fibrous tissue was removed prior to dissociation, and muscle fibers were dissociated using collagenase AFC A (Worthington, CLSAFA, 2000U/ml) for 45 minutes at 37° C. Muscle isolates were incubated in 1× ACK erythrocyte lysis buffer for 1 minute at room temperature. Cells were resuspended in a serum-free proliferation medium (SFM1 medium) and immediately seeded into fibronectin (4 μg cm-2 bovine fibronectin; F1141, Merck/Sigma) coated tissue culture plates, and pre-cultured at 37° C. for 72 hours. The serum-free proliferation medium that was used is as disclosed in WO 2021/158103, the contents of which are incorporated herein by reference, and is referred to therein as “SFM1” and contains: albumin (5 mg/ml), somatotropin (2 ng/ml), L-Ascorbic acid 2-phosphate (50 μg/ml), hydrocortisone (36 ng/ml), a-linolenic acid (1 μg/ml), insulin (10 μg/ml), transferrin (5.5 μg/ml), sodium selenite (0.0067 μg/ml), ethanolamine (2 μg/ml), L-alanyl-L-glutamine or glutamine (2 mM), IL-6 (5 ng/ml), FGF2 also referred to as bFGF (10 ng/ml), IGF1 (100 ng/ml), VEGF (10 ng/ml), HGF (5 ng/ml), PDGF-bb (10 ng/ml) and DMEM/F12 basal medium. In the experiments described herein, the SFM1 medium is also referred to as control (Ctrl) or base medium.
After 72 hours of pre-culture, FAPS were sorted using a MACSQuant Tyto sorter (Miltenyi) based on absence of expression of JAM1, CD45, and integrin alpha 7 (ITGA7), and the positive expression of integrin alpha 5 (ITGA5). SCs were sorted based on the absence of expression of JAM1, CD45, ITGA5, and the positive expression of ITGA7.
After FACS sorting, FAP cells and SC cells were cultured on collagen Type I coated tissue culture flasks at 37° C. and 5% CO2 in a serum-free proliferation medium (SFM1). Purities of SCs and FAPs were assessed at the end of each passage by measuring the expression of ITGA7 and ITGA5 via flow cytometry as described below.
Sorted SCs and FAPs were stained with ITGA7-PE and […]. Subsequently, cells were washed and analyzed on a MACSQuant 10 flow analyzer (Miltenyi). Unstained cells were used as a negative control, and to define gating parameters. For the compound screenings (FIG. 2A), percentage of SCs relative to FAPs was determined after one culture passage.
These informed the selection of compounds to favor the proliferation of either of the two cell types. Increasing or decreasing the concentration of growth factors targeting these receptors, or adding compounds that target downstream pathways, altered the growth of SCs relative to FAPs (FIG. 2A, FIG. 2B). As only SCs and FAPs were present in the cell cultures of FIG. 2A and 2B, measuring the relative amount (ratio) of SCs likewise provides information about the relative amount (ratio) of FAPs in the respective media. The ratio of SCs in the respective cell media was normalized against a control ratio (Ctrl; set at 1) which means that a promotion of SCs results in an increase of SCs compared to the control culture (>1), whereas a relative decrease of SCs in the medium compared to the control culture (<1) denotes at the same time for a promotion of FAP proliferation in the respective media.

SCs and FAPs [3] = assay: Long-term proliferation assay of SC/FAP mixtures on Laminin 521 with different media (FIGS. 4A-4C); conditions: Laminin 521 coating
Procedure: as §1
Using Laminin 521 as a coating, we further used the previously identified compounds to adapt the base media (Ctrl) to favor the growth of SCs over FAPs (FIGS. 4A-4C).

[4] = single media adaptation of base media (Ctrl): 10× HGF or T3 added

Molecule	percentage of SCs in total cells (SCs and FAPs) over long-term proliferation (SCs and FAPs [1])	growth of SCs relative to FAPs (ratio of SCs normalized against control ratio, Ctrl set at 1) (SCs and FAPs [2])	further results
collagen	the proportion of FAPs increased quickly over 3 passages		percentage of SCs in total cells (SCs and FAPs) over long-term proliferation (SCs and FAPs [1]; listed as Collagen): favor proliferation of FAPs
COc1ccc2c(c1)c(CC(=O)O)c(C)n2C(=O)c1ccc(Cl)cc1 [IC, Indomethacin]		specifically promoted the proliferation of SCs	
C[S+]([O-])c1ccc(-c2nc(-c3ccc(F)cc3)c(-c3ccncc3)[nH]2)cc1 (stereo not shown) [SB203580, 4-{4-(4-Fluorophenyl)-2-[4-(methanesulfinyl)phenyl]-1H-imidazol-5-yl} pyridine]		specifically promoted the proliferation of SCs	
hepatocyte growth factor [HGF]		specifically promoted the proliferation of SCs	relative growth/proliferation of SCs compared to FAPs (SCs and FAPs [3]; [4]): promoted the relative growth/proliferation of SCs compared to FAPs
fibroblast growth factor 2 [FGF2]		specifically promoted the proliferation of SCs	
N[C@@H](Cc1cc(I)c(Oc2ccc(O)c(I)c2)c(I)c1)C(=O)O [T3, Triiodothyronine, reference compound]		specifically promoted the proliferation of SCs	relative growth/proliferation of SCs compared to FAPs (SCs and FAPs [3]; [4]): promoted the relative growth/proliferation of SCs compared to FAPs
Interleukin 6 [IL-6]		specifically promoted the proliferation of FAPs	
C[C@]12CCC(=O)C=C1CC[C@@H]1[C@@H]2[C@@H](O)C[C@@]2(C)[C@H]1CC[C@]2(O)C(=O)CO [HC, Hydrocortisone]		specifically promoted the proliferation of SCs	
fibronectin	the proportion of FAPs increased quickly over 3 passages; also recorded: favor proliferation of FAPs		
C[C@H](NC(=O)Cc1cc(F)cc(F)c1)C(=O)N[C@H](C(=O)OC(C)(C)C)c1ccccc1 [DAPT]		specifically promoted the proliferation of SCs	
Laminin 521: extracellular matrix protein used as tissue culture vessel coating	the percentage of SCs remained high		percentage of SCs in total cells (SCs and FAPs) over long-term proliferation (SCs and FAPs [1]; listed as laminin 521): allow for maintaining high percentages of SCs during proliferation
PDGF-bb: growth factor of the base medium (protein, UniProt P01127 82-190, looked up) Platelet-derived growth …: SLGSLTIAEPAMIAECKTRTEVFEISRRLIDRTNANFLVWPPCVEVQRCSGCCNNRNVQCRPTQVQLRPVQVRKIEIVRKKPIFKKATVTLEDHLACKCETVAAARPVT		specifically promoted the proliferation of FAPs	relative growth/proliferation of SCs compared to FAPs (SCs and FAPs [3]; single media adaptation 0× PDGF-bb (PDGF-bb absent from base media)): promoted the relative growth/proliferation of SCs compared to FAPs
vitronectin: extracellular matrix protein used as tissue culture vessel coating (protein, UniProt P04004 20-478, looked up) Vitronectin: DQESCKGRCTEGFNVDKKCQCDELCSYYQSCCTDYTAECKPQVTRGDVFTMPEDEYTVYDDGEEKNNATVHEQVGGPSLTSDLQAQSKGNPEQTPVLKPEEEAPAPEVGASKPEGIDSRPETLHPGRPQPPAEEELCSGKPFDAFTDLKNGSLFAFRGQYCYELDEKAVRPGYPKLIRDVWGIEGPIDAAFTRINCQGKTYLFKGSQYWRFEDGVLDPDYPRNISDGFDGIPDNVDAALALPAHSYSGRERVYFFKGKQYWEYQFQHQPSQEECEGSSLSAVFEHFAMMQRDSWEDIFELLFWGRTSAGTRQPQFISRDWHGVPGQVDAAMAGRIYISGMAPRPSLAKKQRFRHRNRKGYRSQRGHSRGRNQNSRRPSRATWLSLFSSEESNLGANNYDDYRMDWLVPATCEPIQSVFFFSGDKYYRVNLRTRRVDTVDPPYPRSIAQYWLGCPAPGHL	the percentage of SCs remained high		percentage of SCs in total cells (SCs and FAPs) over long-term proliferation (SCs and FAPs [1]; listed as Vitronectin): allow for maintaining high percentages of SCs during proliferation
